Results published in EPA's CvTdb concentration-time database.

System: rat
Test: concentration in blood after dosing
Conditions: dosed: p-tert-octylphenol, Sprague-Dawley

CC(C)(C)CC(C)(C)c1ccc(O)cc1 [octylphenol]
concentration in blood [ng/mL]
Conditions	female	male
0.1573 h, 2 mg/kg, iv	–	159
0.1576 h, 4 mg/kg, iv	–	317
0.1581 h, 8 mg/kg, iv	–	942
0.1679 h, 2 mg/kg, iv	116	–
0.1763 h, 4 mg/kg, iv	283	–
0.1763 h, 8 mg/kg, iv	852	–
0.4805 h, 8 mg/kg, iv	–	376
0.4823 h, 125 mg/kg, oral	–	157
0.4883 h, 2 mg/kg, iv	–	63.6
0.4888 h, 4 mg/kg, iv	–	169
0.499 h, 250 mg/kg, oral	–	244
0.5015 h, 50 mg/kg, oral	–	63.7
0.5164 h, 2 mg/kg, iv	67.8	–
0.5164 h, 4 mg/kg, iv	141	–
0.5164 h, 8 mg/kg, iv	430	–
0.519 h, 125 mg/kg, oral	159	–
0.5202 h, 250 mg/kg, oral	222	–
0.5529 h, 50 mg/kg, oral	136	–
0.8196 h, 2 mg/kg, iv	–	46.6
0.8247 h, 8 mg/kg, iv	–	258
0.8286 h, 4 mg/kg, iv	–	107
0.8355 h, 2 mg/kg, iv	43.6	–
0.8355 h, 4 mg/kg, iv	89.6	–
0.8397 h, 8 mg/kg, iv	303	–
0.9901 h, 250 mg/kg, oral	–	379
0.9911 h, 125 mg/kg, oral	–	219
0.9923 h, 50 mg/kg, oral	–	116
1.038 h, 125 mg/kg, oral	271	–
1.051 h, 50 mg/kg, oral	87.5	–
1.147 h, 8 mg/kg, iv	–	210
1.155 h, 2 mg/kg, iv	–	28.8
1.16 h, 4 mg/kg, iv	–	69.7
1.167 h, 2 mg/kg, iv	23.8	–
1.167 h, 4 mg/kg, iv	71	–
1.167 h, 8 mg/kg, iv	229	–
1.486 h, 2 mg/kg, iv	–	24.8
1.487 h, 8 mg/kg, iv	–	169
1.499 h, 8 mg/kg, iv	170	–
1.5 h, 4 mg/kg, iv	–	59.3
1.503 h, 2 mg/kg, iv	25.3	–
1.503 h, 4 mg/kg, iv	59	–
1.994 h, 2 mg/kg, iv	16.1	–
1.994 h, 4 mg/kg, iv	46.2	–
1.994 h, 8 mg/kg, iv	128	–
2.003 h, 2 mg/kg, iv	–	22.4
2.003 h, 4 mg/kg, iv	–	39.3
2.004 h, 8 mg/kg, iv	–	122
2.038 h, 125 mg/kg, oral	235	–
2.052 h, 50 mg/kg, oral	109	–
2.08 h, 250 mg/kg, oral	–	305
2.081 h, 50 mg/kg, oral	–	128
2.081 h, 125 mg/kg, oral	–	171
2.989 h, 4 mg/kg, iv	–	23.4
2.993 h, 8 mg/kg, iv	–	72.1
2.998 h, 2 mg/kg, iv	15.9	–
2.998 h, 4 mg/kg, iv	33.8	–
3.015 h, 8 mg/kg, iv	101	–
3.991 h, 4 mg/kg, iv	–	12.2
3.996 h, 8 mg/kg, iv	–	40.2
3.997 h, 8 mg/kg, iv	57.6	–
4.014 h, 4 mg/kg, iv	21.7	–
4.016 h, 50 mg/kg, oral	70	–
4.022 h, 250 mg/kg, oral	320	–
4.03 h, 250 mg/kg, oral	–	260
4.031 h, 125 mg/kg, oral	–	160
4.032 h, 50 mg/kg, oral	–	85.1
4.038 h, 125 mg/kg, oral	268	–
6.016 h, 50 mg/kg, oral	69.2	–
6.02 h, 125 mg/kg, oral	210	–
6.021 h, 250 mg/kg, oral	268	–
6.034 h, 250 mg/kg, oral	–	192
6.07 h, 50 mg/kg, oral	–	87
6.07 h, 125 mg/kg, oral	–	123
7.933 h, 50 mg/kg, oral	–	77.3
8 h, 50 mg/kg, oral	93.2	–
8.003 h, 125 mg/kg, oral	205	95.8
8.005 h, 250 mg/kg, oral	357	–
8.019 h, 250 mg/kg, oral	–	210
11.97 h, 250 mg/kg, oral	373	–
11.98 h, 50 mg/kg, oral	69.7	–
11.99 h, 50 mg/kg, oral	–	37.2
11.99 h, 125 mg/kg, oral	–	84.2
11.99 h, 250 mg/kg, oral	–	157
12.02 h, 125 mg/kg, oral	209	–
24.01 h, 50 mg/kg, oral	24.7	–
24.02 h, 250 mg/kg, oral	–	107
24.03 h, 50 mg/kg, oral	–	7.77
24.03 h, 125 mg/kg, oral	63.5	–
24.04 h, 125 mg/kg, oral	–	28.8
24.04 h, 250 mg/kg, oral	307	–

concentration in blood [ng/mL], 125 mg/kg
Conditions	0.5035 h	0.5155 h	1.054 h	2.015 h	4.058 h	5.98 h	8.091 h	12.04 h	24.03 h
female	–	19	–	–	–	–	–	–	–
male	23.9	–	39.1	61.8	90.3	102	180	122	54.7
